Assays:
[1] = target: T1, BRD4 and DCAF16 (Homo sapiens, UniProt O60885+Q9NXF7); assay: Co-immunoprecipitation of BRD4-FLAG with HA-DCAF16 in HEK293T cells; format: cell-based; settings: 10 μM KB02-JQ1, 10 μM MG132, 2 hours
T1 construct: expressed in transfected cells; host or cells: HEK293T (pRK5 vectors)
Method: (§1) Cells were collected and lysed in 1% NP-40 lysis buffer (25 mM Tris-HCl pH 7.4, 150 mM NaCl, 10% glycerol, 1% Nonidet P-40) with complete protease inhibitor cocktail (Roche). Cells were vortexed and sonicated for 5 pulses (40%, 4). The supernatant was collected after centrifugation at 16,000 g for 10 min at 4° C. Protein concentration was determined by DC assay (Bio-Rad). Protein lysate was heated at 95° C. for 5 min in 1× Laemmli sample buffer. Proteins were resolved by 12% or 14% Novex Tris-Glycine Mini Gels (Invitrogen) and transferred to polyvinylidene fluoride (PVDF) membrane (0.2 Bio-Rad). The membrane was blocked with 5% BSA in TBST buffer (0.1% Tween 20, 20 mM Tris-HCl 7.6, 150 mM NaCl) at room temperature for 1 h. The antibody was diluted with fresh 5% BSA in TBST buffer (1:10000 dilution for FLAG, HA and β-Actin, 1:1000 dilution for others) and incubated with membrane (1 h room temperature for FLAG, HA and β-Actin, overnight 4° C. for others). Membrane was washed three times with TBST buffer and incubated with secondary antibody (1:5000 dilution in 5% BSA in TBST) at room temperature for 1 h. Membrane was washed three times with TBST buffer. The chemiluminescence signal in membrane was recorded after developing in ECL or ECL plus western blotting detection reagent using CL-XPosure film (Thermo Scientific). Relative band intensities were quantified using ImageJ. […]

[2] = target: T2, FLAG-FKBP12 (Homo sapiens, UniProt P62942); assay: Polyubiquitination of immunoprecipitated cytosolic FLAG-FKBP12 in HEK293T cells; format: cell-based; settings: KB02-SLF 5 μM, MG132 10 μM, 2 hours
T2 construct: expressed in transfected cells; host or cells: HEK293T (lentiviral transduction, puromycin selection)
Method: as §1

[3] = target: T3, HA-DCAF16 and FLAG-FKBP12_NLS (Homo sapiens, UniProt P62942+Q9NXF7); assay: Co-immunoprecipitation of HA-DCAF16 with FLAG-FKBP12_NLS (ternary complex) in HEK293T cells; format: cell-based; settings: MG132 10 μM
T3 construct: expressed in transfected cells; host or cells: HEK293T stably expressing FLAG-FKBP12_NLS, transiently transfected with HA-DCAF16 (pRK5)
Method: (§2) Cells were collected and lysed in 1% NP-40 lysis buffer (25 mM Tris-HCl pH 7.4, 150 mM NaCl, 10% glycerol, 1% Nonidet P-40) with complete protease inhibitor cocktail (Roche). Cells were vortexed and sonicated for 5 pulses (40%, 4). The supernatant was collected after centrifugation at 16,000 g for 10 min at 4° C. Protein concentration was determined by DC assay (Bio-Rad). Protein lysate was heated at 95° C. for 5 min in 1× Laemmli sample buffer. Proteins were resolved by 12% or 14% Novex Tris-Glycine Mini Gels (Invitrogen) and transferred to polyvinylidene fluoride (PVDF) membrane (0.2 Bio-Rad). The membrane was blocked with 5% BSA in TBST buffer (0.1% Tween 20, 20 mM Tris-HCl 7.6, 150 mM NaCl) at room temperature for 1 h. The antibody was diluted with fresh 5% BSA in TBST buffer (1:10000 dilution for FLAG, HA and β-Actin, 1:1000 dilution for others) and incubated with membrane (1 h room temperature for FLAG, HA and β-Actin, overnight 4° C. for others). Membrane was washed three times with TBST buffer and incubated with secondary antibody (1:5000 dilution in 5% BSA in TBST) at room temperature for 1 h. Membrane was washed three times with TBST buffer. The chemiluminescence signal in membrane was recorded after developing in ECL or ECL plus western blotting detection reagent using CL-XPosure film (Thermo Scientific). Relative band intensities were quantified using ImageJ.
(§3) Cells were collected and lysed in 1% NP-40 lysis buffer with complete protease inhibitor cocktail on ice for 10 min, followed by 5 pulses of sonication (40%, 4). After centrifugation at 16,000 g for 10 min at 4° C., the supernatant was collected. FLAG affinity gel (20 μL slurry per sample) was incubated with protein lysates at 4° C. for 1 h and washed four times with IP washing buffer. The affinity gel was heated at 95° C. for 10 min in 2× Laemmli sample buffer, followed by western blot analysis.

[4] = tested on: HA-DCAF16 and FLAG-FKBP12_NLS; assay: as above; format: cell-based, human; settings: KB02-SLF, cells pre-treated with MG132
Method: as §2, §3

[5] = tested on: CRL(s); assay: isoTOP-ABPP of ligand-engaged cysteines in HEK293T cells; format: cell-based, human; settings: 10 μM KB02-SLF, 2 h
Method: HEK293T cells were treated with DMSO or 10 μM KB02-SLF for 2 h. Cells were collected and subjected to isoTOP-ABPP sample preparation using the same protocol as described in Backus et al., “Proteome-wide covalent ligand discovery in native biological systems”, Nature 534: 570-574 (2016).

[6] = target: T4, HA-DCAF16 (Homo sapiens, UniProt Q9NXF7); assay: Western blot of HA-DCAF16 in DCAF16−/− cells; format: cell-based; settings: KB02-SLF 1.5 μM, 8 hours
T4 construct: expressed in transfected cells; host or cells: HEK293T (A9); DCAF16-/- HEK293 clones (A20); pRK5 vector
Method: as §2

[7] = target: FLAG-FKBP12_NLS (Homo sapiens, UniProt P62942); assay: Anti-FLAG western blot of stably expressed nuclear FKBP12 (FLAG-FKBP12_NLS) in HEK293T cells; format: cell-based; parameters: expressed in transfected cells; host or cells: HEK293T, MDA-MB-231 and HEK293 DCAF16+/+ and DCAF16-/- clones (lentiviral pCDH-CMV-MCS-EF1-Puro); settings: HEK293T
Text: FLAG-tagged variants of FKBP12 (FLAG-FKBP12) or (2) FKBP12 with a C-terminal nuclear localization sequence (FLAG-FKBP12_NLS) were then stably expressed in HEK293T cells to provide cell models for evaluating cytosolic- and nuclear-localized E3-mediated degradation pathways, respectively.
FLAG-FKBP12 or FLAG-FKBP12_NLS lentivirus was generated by co-transfection of FLAG-FKBP12 or FLAG-FKBP12_NLS, pCMV-dR8.2 and pMD2.G into HEK 293T cells using FuGene 6 transfection reagent (Promega). Virus-containing medium were collected 48 h after transfection, filtered with […] filter, and used to transduce HEK293T and MDA-MB-231 cells in the presence of 10 μg/mL polybrene (Santa Cruz). 72 h after transduction, puromycin (2 μg/mL) was added to cells. HEK293T cells stably expressing FLAG-FKBP12 or FLAG-FKBP12_NLS were obtained after puromycin selection for 7 days. HEK293T cells stably expressing pCDH empty vector were generated in parallel as control.
shRNA lentivirus was generated by co-transfection of shRNA-containing vector, pCMV-dR8.2 and pMD2.G into HEK 293T cells using FuGene 6 transfection reagent (Promega). Virus-containing medium were collected 48 h after transfection and used to transiently transduce HEK293T cells stably expressing FLAG-FKBP12_NLS for 48 h. Lentiviral shRNAs targeting human DCAF16 or DTL were in pLKO.1 vector and purchased from Sigma. The sequences of shRNAs is described below.
as §2

Chain of FLAG-FKBP12_NLS (P62942 whole entry): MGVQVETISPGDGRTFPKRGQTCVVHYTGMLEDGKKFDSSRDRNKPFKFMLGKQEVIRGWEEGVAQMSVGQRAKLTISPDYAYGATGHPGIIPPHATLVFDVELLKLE
T4 sequence (Q9NXF7 whole entry): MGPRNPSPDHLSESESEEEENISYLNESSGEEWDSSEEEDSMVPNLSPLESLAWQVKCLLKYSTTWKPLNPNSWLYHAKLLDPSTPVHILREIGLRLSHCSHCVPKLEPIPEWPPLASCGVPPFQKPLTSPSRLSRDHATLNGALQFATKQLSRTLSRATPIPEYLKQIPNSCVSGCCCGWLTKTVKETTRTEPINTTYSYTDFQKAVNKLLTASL
T2 sequence (P62942 whole entry): as the sequence (P62942 whole entry) above

| Compound | co-immunoprecipitation of DCAF16 with BRD4 [1] | polyubiquitination of cytosolic FKBP12 [2] | co-immunoprecipitation of HA-DCAF16 with FLAG-FKBP12_NLS ([3]; 5 μM, 2 hours) | conversion of HA-DCAF16 to higher molecular weight (HMW) form ([3]; increasing concentrations of KB02-SLF, 2 h) | co-immunoprecipitation of C173S- and C178S-DCAF16 with FKBP12_NLS [4] | co-immunoprecipitation of C177S- and C179S-DCAF16 with FKBP12_NLS [4] | strongly engaged (>75%) cysteines on CRL(s) [5] | degradation of HA-DCAF16 [6] | concentration for degradation of FKBP12_NLS [7] [µM] | nuclear FKBP12 (FKBP12_NLS) protein level ([7]; 2 μM, 8 or 24 h) | KB02-SLF-mediated degradation of FKBP12_NLS after shRNA knockdown of DCAF16 ([7]; KB02-SLF 2 μM, 8 h) | KB02-SLF-mediated degradation of FKBP12_NLS after shRNA knockdown of DTL ([7]; KB02-SLF 2 μM, 8 h) | time frame across which the reduction in nuclear FKBP12 was sustained ([7]; KB02-SLF, FIG. 5A) [h] | concentration across which loss of FKBP12_NLS was promoted ([7]; reductions in activity at higher concentrations, in µM) |
| --- | --- | --- | --- | --- | --- | --- | --- | --- | --- | --- | --- | --- | --- | --- |
| Cc1sc2c(c1C)C(c1ccc(Cl)cc1)=N[C@@H](CC(=O)NCCOCCOCCNC(=O)COc1ccc3c(c1)CCCN3C(=O)CCl)c1nnc(C)n1-2 [KB02-JQ1, (S)-2-((1-(2-chloroacetyl)-1,2,3,4-tetrahydroquinolin-6-yl)oxy)-N-(2-(2-(2-(2-(4-(4-chlorophenyl)-2,3,9-trimethyl-6H-thieno[3,2-f][1,2,4]triazolo[4,3-a][1,4]diazepin-6-yl)acetamido)ethoxy)ethoxy)ethyl)acetamide] | co-immunoprecipitated with BRD4 in a KB02-JQ1-dependent manner | – | – | – | – | – | – | – | – | – | – | – | – | – |
| CCC(C)(C)C(=O)C(=O)N1CCCC[C@H]1C(=O)O[C@H](CCc1ccc(OC)c(OC)c1)c1cccc(NC(=O)CCOCCOCCNC(=O)COc2ccc3c(c2)CCCN3C(=O)CCl)c1 [KB02-SLF, (R)-1-(3-(3-(2-(2-(2-((1-(2-chloroacetyl)-1,2,3,4-tetrahydroquinolin-6-yl)oxy)acetamido)ethoxy)ethoxy)propanamido)phenyl)-3-(3,4-dimethoxyphenyl)propyl (S)-1-(3,3-dimethyl-2-oxopentanoyl)piperidine-2-carboxylate] | – | not cytosolic FKBP12 | HA-DCAF16 and DDB1 co-immunoprecipitated with FLAG-FKBP12_NLS | Only a modest fraction of HA-DCAF16 was converted to this HMW | co-immunoprecipitated with FKBP12_NLS in KB02-SLF-treated cells | not C177S- and C179S-DCAF16 | cysteines were not observed on CRL(s) that were strongly engaged (>75%) | degradation of HA-DCAF16 was not observed | 0.5 to 2 | substantial reduction in nuclear FKBP12 | substantially prevented KB02-SLF-mediated degradation of FKBP12_NLS | not DTL | 4 to 72 | 0.5-5 |

Reference: patent US11691984B2, “Compounds and methods for DCAF-mediated protein degradation” (The Scripps Research Institute, priority 2018, dated 2023)
